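Test compounds were applied to cells in 96-well plates for 48 hours at 5 doses. GI50 = concentration required for 50% inhibition of growth. TGI is the concentration that stops growth completely.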
What was measured:
Test in all cases: DTP human tumour cell line panel, 48 h
[1] = test system: 786-0 renal
[2] = test system: A498 renal
[3] = test system: A549 NSCLC
[4] = test system: ACHN renal
[5] = test system: BT-549 breast
[6] = test system: CCRF-CEM leukemia
[7] = test system: COLO 205 colon
[8] = test system: EKVX NSCLC
[9] = test system: HCC-2998 colon
[10] = test system: HCT-116 colon
[11] = test system: HCT-15 colon
[12] = test system: HL-60(TB) leukemia
[13] = test system: HOP-62 NSCLC
[14] = test system: HOP-92 NSCLC
[15] = test system: HS 578T breast
[16] = test system: HT29 colon
[17] = test system: IGROV1 ovarian
[18] = test system: K-562 leukemia
[19] = test system: KM12 colon
[20] = test system: LOX IMVI melanoma
[21] = test system: M14 melanoma
[22] = test system: MALME-3M melanoma
[23] = test system: MCF7 breast
[24] = test system: MDA-MB-231 breast
[25] = test system: MDA-MB-435
[26] = test system: MOLT-4 leukemia
[27] = test system: NCI-H226 lung
[28] = test system: NCI-H23 lung
[29] = test system: NCI-H460 lung
[30] = test system: NCI-H522 lung
[31] = test system: NCI/ADR-RES ovarian
[32] = test system: OVCAR-3 ovarian
[33] = test system: OVCAR-4 ovarian
[34] = test system: OVCAR-5 ovarian
[35] = test system: OVCAR-8 ovarian
[36] = test system: PC-3 prostate
[37] = test system: RPMI-8226 leukemia
[38] = test system: RXF 393 renal
[39] = test system: SF-268 CNS
[40] = test system: SF-295 CNS
[41] = test system: SF-539 CNS
[42] = test system: SK-MEL-2 melanoma
[43] = test system: SK-MEL-28 melanoma
[44] = test system: SK-MEL-5 melanoma
[45] = test system: SK-OV-3 ovarian
[46] = test system: SN12C renal
[47] = test system: SNB-19 CNS
[48] = test system: SNB-75 CNS
[49] = test system: SR leukemia
[50] = test system: SW-620 colon
[51] = test system: T-47D breast
[52] = test system: TK-10 renal
[53] = test system: U251 CNS
[54] = test system: UACC-257 melanoma
[55] = test system: UACC-62 melanoma
[56] = test system: UO-31 renal

Q: What does the source list for C/C=C\C(=O)O[C@@H]1CC2O[C@@H]3C=C(C)C(=O)C[C@]3(C)[C@]1(C)[C@]21CO1?
A: GI50 [1]: 615 nM; TGI [1]: 3.37 µM; GI50 [2]: 676 nM; TGI [2]: 2380 nM; GI50 [3]: 795 nM; TGI [3]: 10.3 µM; GI50 [4]: 642 nM; TGI [4]: 2770 nM; GI50 [5]: 699 nM; TGI [5]: 1920 nM; GI50 [6]: 422 nM; TGI [6]: 25 µM; GI50 [7]: 459 nM; TGI [7]: 1160 nM; GI50 [8]: 873 nM; TGI [8]: 5.7 µM; GI50 [9]: 769 nM; TGI [9]: 2720 nM; GI50 [10]: 429 nM; TGI [10]: 2630 nM; GI50 [11]: 671 nM; TGI [11]: 16.5 µM; GI50 [12]: 522 nM; TGI [12]: 1350 nM; GI50 [13]: 639 nM; TGI [13]: 1980 nM; GI50 [14]: 538 nM; TGI [14]: 1890 nM; GI50 [15]: 723 nM; TGI [15]: 2310 nM; GI50 [16]: 534 nM; TGI [16]: 2330 nM; GI50 [17]: 842 nM; TGI [17]: 6.44 µM; GI50 [18]: 507 nM; TGI [18]: 4.48 µM; GI50 [19]: 567 nM; TGI [19]: 5.55 µM; GI50 [20]: 209 nM; TGI [20]: 1640 nM; GI50 [21]: 431 nM; TGI [21]: 962 nM; GI50 [22]: 612 nM; TGI [22]: 2370 nM; GI50 [23]: 459 nM; TGI [23]: 14.9 µM; GI50 [24]: 604 nM; TGI [24]: 2030 nM; GI50 [25]: 660 nM; TGI [25]: 2670 nM; GI50 [26]: 581 nM; TGI [26]: 2240 nM; GI50 [27]: 648 nM; TGI [27]: 4.36 µM; GI50 [28]: 587 nM; TGI [28]: 2140 nM; GI50 [29]: 668 nM; TGI [29]: 4.4 µM; GI50 [30]: 486 nM; TGI [30]: 1620 nM; GI50 [31]: 783 nM; TGI [31]: 8.3 µM; GI50 [32]: 783 nM; TGI [32]: 3.08 µM; GI50 [33]: 632 nM; TGI [33]: 1930 nM; GI50 [34]: 796 nM; TGI [34]: 3.82 µM; GI50 [35]: 756 nM; TGI [35]: 5.49 µM; GI50 [36]: 799 nM; TGI [36]: 8.12 µM; GI50 [37]: 522 nM; TGI [37]: 1500 nM; GI50 [38]: 499 nM; TGI [38]: 1620 nM; GI50 [39]: 743 nM; TGI [39]: 5.45 µM; GI50 [40]: 715 nM; TGI [40]: 4.77 µM; GI50 [41]: 622 nM; TGI [41]: 1540 nM; GI50 [42]: 468 nM; TGI [42]: 1480 nM; GI50 [43]: 471 nM; TGI [43]: 1560 nM; GI50 [44]: 528 nM; TGI [44]: 1370 nM; GI50 [45]: 896 nM; TGI [45]: 6.56 µM; GI50 [46]: 643 nM; TGI [46]: 3.89 µM; GI50 [47]: 565 nM; TGI [47]: 3.33 µM; GI50 [48]: 470 nM; TGI [48]: 1960 nM; GI50 [49]: 670 nM; TGI [49]: 3.04 µM; GI50 [50]: 634 nM; TGI [50]: 6.28 µM; GI50 [51]: 529 nM; TGI [51]: 1970 nM; GI50 [52]: 664 nM; TGI [52]: 2500 nM; GI50 [53]: 648 nM; TGI [53]: 5.6 µM; GI50 [54]: 599 nM; TGI [54]: 2110 nM; GI50 [55]: 653 nM; TGI [55]: 2420 nM; GI50 [56]: 712 nM; TGI [56]: 4.31 µM
